Reference: patent US20250215029A1 (Recludix Pharma, Inc., priority 2022, published 2025)
Read-outs that look alike come from different tables or passages of the source.

How the values were obtained:
pY705-STAT3 in PBMC = target: T1, pY705-STAT3 in PBMC (Homo sapiens, UniProt P40763); assay: MSD-pSTAT-PBMC Assay (pSTAT3, IL-6 stimulated); type: cell-based; conditions: compound 3 hrs, then 10 ng/mL IL-6 for 10 min
T1 construct: Cryopreserved Peripheral Blood Mononuclear Cells (PBMC) are from AllCells; host or cells: cryopreserved PBMC
In short: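 MSD electrochemiluminescence read-out: total STAT captured, probed with anti-pY641-STAT6 or anti-pY705-STAT3. Human PBMC, 3 h compound pretreatment, 10 min stimulation (IL-4 1 ng/mL or IL-6 10 ng/mL). Unstimulated signal subtracted, DMSO-normalized, variable-slope IC50.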

pY641-STAT6 in PBMC = target: T2, pY641-STAT6 in PBMC (Homo sapiens, UniProt P42226); assay: MSD-pSTAT-PBMC Assay (pSTAT6, IL-4 stimulated); type: cell-based; conditions: compound 3 hrs, then 1 ng/mL IL-4 for 10 min
T2 construct: Cryopreserved Peripheral Blood Mononuclear Cells (PBMC) are from AllCells; host or cells: cryopreserved PBMC
T2 sequence (P42226 1-847): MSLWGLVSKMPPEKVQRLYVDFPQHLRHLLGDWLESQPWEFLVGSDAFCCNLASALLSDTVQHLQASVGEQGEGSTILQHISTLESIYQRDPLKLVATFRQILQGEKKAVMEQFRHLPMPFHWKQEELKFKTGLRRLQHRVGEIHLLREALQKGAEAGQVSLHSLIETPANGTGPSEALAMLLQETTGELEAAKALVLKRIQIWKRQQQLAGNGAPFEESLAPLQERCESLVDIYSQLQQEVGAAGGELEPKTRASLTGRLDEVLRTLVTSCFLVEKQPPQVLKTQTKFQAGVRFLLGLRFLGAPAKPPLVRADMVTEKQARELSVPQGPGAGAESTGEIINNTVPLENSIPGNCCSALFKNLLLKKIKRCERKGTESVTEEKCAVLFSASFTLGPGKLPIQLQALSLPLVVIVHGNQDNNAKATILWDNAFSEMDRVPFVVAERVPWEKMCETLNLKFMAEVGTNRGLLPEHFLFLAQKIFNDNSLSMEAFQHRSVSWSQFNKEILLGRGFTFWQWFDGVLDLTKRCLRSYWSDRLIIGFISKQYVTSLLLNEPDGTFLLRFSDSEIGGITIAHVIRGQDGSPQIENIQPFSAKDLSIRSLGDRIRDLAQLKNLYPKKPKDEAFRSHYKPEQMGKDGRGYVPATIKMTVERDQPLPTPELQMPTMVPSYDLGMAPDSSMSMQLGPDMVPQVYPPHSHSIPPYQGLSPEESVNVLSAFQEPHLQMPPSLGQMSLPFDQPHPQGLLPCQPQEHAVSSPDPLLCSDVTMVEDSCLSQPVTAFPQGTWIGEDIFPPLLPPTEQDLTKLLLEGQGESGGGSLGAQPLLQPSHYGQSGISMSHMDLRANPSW
In short: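 Thawed human PBMC rested overnight in IMDM/10% FBS, then got compound for 3 hrs before a 10 min cytokine pulse: 1 ng/mL IL-4 for pSTAT6, 10 ng/mL IL-6 for pSTAT3. Lysates went to MSD sandwich capture on total STAT6 or STAT3 with phospho-specific detection. IC50 came from background-subtracted, DMSO-normalized signal.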

[1] = PBMC, Table 1114, read-out: pSTAT3
[2] = PBMC, Table 1114, read-out: pSTAT6
[3] = PBMC, Table 115, read-out: STAT3
[4] = PBMC, Table 115, read-out: STAT6

T1 sequence (P40763 whole entry): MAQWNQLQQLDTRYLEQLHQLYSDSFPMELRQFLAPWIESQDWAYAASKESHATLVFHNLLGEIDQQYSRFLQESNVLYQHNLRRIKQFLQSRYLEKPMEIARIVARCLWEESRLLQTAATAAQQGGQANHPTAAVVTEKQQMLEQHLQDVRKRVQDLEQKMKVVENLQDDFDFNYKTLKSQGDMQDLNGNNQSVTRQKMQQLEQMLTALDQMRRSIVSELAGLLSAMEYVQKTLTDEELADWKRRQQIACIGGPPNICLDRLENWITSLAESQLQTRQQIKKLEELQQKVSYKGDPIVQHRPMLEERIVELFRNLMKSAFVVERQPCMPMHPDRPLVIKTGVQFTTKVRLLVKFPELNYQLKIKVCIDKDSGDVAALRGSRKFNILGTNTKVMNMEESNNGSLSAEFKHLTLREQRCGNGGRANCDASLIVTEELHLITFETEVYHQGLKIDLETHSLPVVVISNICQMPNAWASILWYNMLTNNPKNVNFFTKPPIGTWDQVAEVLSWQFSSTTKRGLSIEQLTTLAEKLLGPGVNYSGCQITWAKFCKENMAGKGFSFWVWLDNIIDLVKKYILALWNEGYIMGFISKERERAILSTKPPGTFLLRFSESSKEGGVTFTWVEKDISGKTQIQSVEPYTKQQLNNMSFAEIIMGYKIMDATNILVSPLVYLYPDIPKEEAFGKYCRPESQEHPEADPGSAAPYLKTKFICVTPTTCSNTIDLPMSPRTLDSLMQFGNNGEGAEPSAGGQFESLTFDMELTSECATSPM

SMILES	IC50 (pY705-STAT3 in PBMC; [1]) [nM]	IC50 (pY641-STAT6 in PBMC; [2]) [nM]	IC50 (pY705-STAT3 in PBMC; [3]) [nM]	IC50 (pY641-STAT6 in PBMC; [4]) [nM]	further results
CC(C)(C)C(=O)SCCOP(=O)(OCCSC(=O)C(C)(C)C)C(F)(F)c1ccc2sc(C(=O)N[C@H]3C[C@@H](O)CC[C@H]4CC[C@@H](C(=O)N5C[C@@H](C#N)[C@H](c6ccccc6)C5)N4C3=O)cc2c1 (single isomer, unassigned) [Compound 129, S,S′-(((((2-(((3S,6S,8S,10aR)-3-((3S,4R or 3R,4S)-3-cyano-4-phenylpyrrolidine-1-carbonyl)-8-hydroxy-5-oxodecahydro-pyrrolo[1,2-a]azocin-6-yl)carbamoyl)benzo [b]thiophen-5-yl)difluoromethyl)phosphoryl)bis(oxy))bis(ethane-2,1-diyl)) bis(2,2-dimethylpropane-thioate]	> 3000	100 to 1000			
CC(C)CC(=O)SCCOP(=O)(OCOC(=O)OC1COC1)C(F)(F)c1ccc2sc(C(=O)N[C@H]3CCCC[C@H]4CC[C@@H](C(=O)N5C[C@H](c6cc[nH]c(=O)c6)[C@@H](C#N)C5)N4C3=O)cc2c1 (single isomer, unassigned) [Compound 1093]			> 3000	100 to 1000	
CC(C)(C)C(=O)SCCOP(=O)(OCCSC(=O)C(C)(C)C)C(F)c1ccc2sc(C(=O)N[C@H]3CCC[C@H]4CC[C@@H](C(=O)N5CC(c6cnccc6F)C5)N4C3=O)cc2c1 (stereo partly drawn) [Compound 984, S,S′-((((fluoro(2-(((3S,6S,9aS)-3-(3-(4-fluoropyridin-3-yl)azetidine-1-carbonyl)-5-oxooctahydro-1H-pyrrolo[1,2-a]azepin-6-yl)carbamoyl)benzo [b]thiophen-5-yl)methyl)phosphoryl)bis(oxy))bis(ethane-2,1-diyl))bis(2,2-dimethyl-propanethioate)]			< 100	> 3000	
CCCC(=O)SCCOP(=O)(Oc1cccc2ccccc12)C(F)(F)c1ccc2sc(C(=O)N[C@H]3CCC[C@H]4CC[C@@H](C(=O)N5CC(c6cccnc6)C5)N4C3=O)cc2c1 (stereo partly drawn) [Compound 140, S-(2-(((difluoro(2-(((3S,6S,9aS)-5-oxo-3-(3-(pyridin-3-yl)azetidine-1-carbonyl)octahydro-1H-pyrrolo[1,2-a]azepin-6-yl)carbamoyl)benzo[b]thiophen-5-yl)methyl) (naphthalen-1-yloxy)phosphoryl)oxy)ethyl) butanethioate]					IC50 (pY705-STAT3 in PBMC; pSTAT3, PBMC, Table 1114): < 100 nM; IC50 (pY641-STAT6 in PBMC; pSTAT6, PBMC, Table 1114): 1000 to 3000 nM
CC(C)OC(=O)OCOP(=O)(OCOC(=O)OC(C)C)C(F)(F)c1ccc2ccc(C(=O)N[C@H]3CCCC[C@H]4CC[C@@H](C(=O)N5C[C@H](c6cc[nH]c(=O)c6)[C@@H](C#N)C5)N4C3=O)cc2c1 (single isomer, unassigned) [Compound 1087]			100 to 1000	< 100	
CC(C)(C)C(=O)OCOP(=O)(OCOC(=O)C(C)(C)C)C(F)(F)c1ccc2sc(C(=O)N[C@H]3CCC[C@H]4CC[C@@H](C(=O)N5CC(c6cccnc6)C5)N4C3=O)cc2c1 [Compound 189, (((difluoro(2-(((3S,6S,9aS)-5-oxo-3-(3-(pyridin-3-yl)azetidine-1-carbonyl)octahydro-1H-pyrrolo[1,2-a]azepin-6-yl)carbamoyl)benzo[b]thiophen-5-yl)methyl)phosphoryl)bis (oxy))bis (methylene) bis(2,2-dimethyl-propanoate)]	< 100	> 3000			
CC(C)(C)C(=O)SCCOP(=O)(Oc1ccc(C#N)cc1)C(F)(F)c1ccc2sc(C(=O)N[C@H]3CCCC[C@H]4CC[C@@H](C(=O)N5C[C@@H](C#N)[C@H](c6ccccc6)C5)N4C3=O)cc2c1 (single isomer, unassigned) [Compound 134, S-(2-((((2-(((3S,6S,10aS)-3-((3S,4R or 3R,4S)-3-cyano-4-phenylpyrrolidine-1-carbonyl)-5-oxodecahydro-pyrrolo[1,2-a]azocin-6-yl)carbamoyl)benzo[b]thiophen-5-yl)difluoromethyl)(4-cyanophenoxy)phosphoryl)oxy)ethyl)-2,2-dimethylpropane-thioate]	> 3000				IC50 (pY641-STAT6 in PBMC; pSTAT6, PBMC, Table 1114): 100 to 1000 nM
CC(C)CC(=O)SCCOP(=O)(OCCSC(=O)CC(C)C)C(F)(F)c1ccc2sc(C(=O)N[C@H]3CCCC[C@H]4CC[C@@H](C(=O)N5CC(c6ccccc6)CC56CC6)N4C3=O)cc2c1 (stereo partly drawn) [Compound 1082, S,S′-((((difluoro(2-(((3S,6S,10aS)-5-oxo-3-(6-phenyl-4-azaspiro[2.4]heptane-4-carbonyl)decahydropyrrolo[1,2-a]azocin-6-yl)carbamoyl)benzo [b]thiophen-5-yl)methyl)phosphoryl)bis(oxy))bis(ethane-2,1-diyl)) bis(3-methylbutanethioate)]			> 3000	100 to 1000	
CC(C)OC(=O)OCOP(=O)(OCOC(=O)OC(C)C)C(F)(F)c1ccc2sc(C(=O)N[C@H]3CCC[C@H]4CC[C@@H](C(=O)N5CC(c6cccnc6)C5)N4C3=O)cc2c1 [Compound 180, (((difluoro(2-(((3S,6S,9aS)-5-oxo-3-(3-(pyridin-3-yl)azetidine-1-carbonyl)octahydro-1H-pyrrolo[1,2-a]azepin-6-yl)carbamoyl)benzo[b]thiophen-5-yl)methyl)phosphoryl)bis(oxy)) bis(methylene) diisopropyl bis(carbonate)]	< 100	> 3000			
CC(C)(C)C(=O)OCOP(=O)(OCOC(=O)C(C)(C)C)[C@@H](F)c1ccc2sc(C(=O)N[C@H]3CCCC[C@H]4CC[C@@H](C(=O)N5C[C@@H](C#N)[C@H](c6ccccc6)C5)N4C3=O)cc2c1 (single isomer, unassigned) [Compound 183, ((((R)- or (S)-(2-(((3S,6S,10aS)-3-((3S,4R or 3R,4S)-3-cyano-4-phenylpyrrolidine-1-carbonyl)-5-oxodecahydropyrrolo[1,2-a]azocin-6-yl)carbamoyl)benzo[b]thiophen-5-yl)fluoromethyl)phosphoryl)bis(oxy))bis(methylene)bis(2,2-dimethylpropanoate))]	100 to 1000	< 100			
CC(C)(C(=O)SCCOP(=O)(OCCSC(=O)C(C)(C)C(F)(F)F)C(F)(F)c1ccc2sc(C(=O)N[C@H]3CCCC[C@H]4CC[C@@H](C(=O)N5C[C@@H](C#N)[C@H](c6ccccc6)C5)N4C3=O)cc2c1)C(F)(F)F (single isomer, unassigned) [Compound 159, S,S′-(((((2-(((3S,6S,10aS)-3-((3S,4R or 3R,4S)-3-cyano-4-phenylpyrrolidine-1-carbonyl)-5-oxodecahydro-pyrrolo[1,2-a]azocin-6-yl)carbamoyl)benzo[b]thiophen-5-yl)difluoromethyl)phosphoryl)bis(oxy))bis(ethane-2,1-diyl)) bis(3,3,3-trifluoro-2,2-dimethylpropane-thioate)]	> 3000	> 3000			
CC(C)(C)C(=O)SCCOP(=O)(OCCSC(=O)C(C)(C)C)C(F)(F)c1ccc2sc(C(=O)N[C@H]3CCC[C@H]4CC[C@@H](C(=O)N5CC(c6cnccc6F)C5)N4C3=O)cc2c1 [Compound 324, S,S′-((((difluoro(2-(((3S,6S,9aS)-3-(3-(4-fluoropyridin-3-yl)azetidine-1-carbonyl)-5-oxooctahydro-1H-pyrrolo[1,2-a]azepin-6-yl)carbamoyl)benzo [b]thiophen-5-yl)methyl)phosphoryl)bis(oxy))bis(ethane-2,1-diyl)) bis(2,2-dimethyl-propanethioate)]			< 100	> 3000	
COCC(=O)SCCOP(=O)(OCCSC(=O)COC)C(F)(F)c1ccc2sc(C(=O)N[C@H]3CCC[C@H]4CC[C@@H](C(=O)N5CC(c6cccnc6)C5)N4C3=O)cc2c1 [Compound 1011, S,S′-((((difluoro(2-(((3S,6S,9aS)-5-oxo-3-(3-(pyridin-3-yl)azetidine-1-carbonyl)octahydro-1H-pyrrolo[1,2-a]azepin-6-yl)carbamoyl)benzo [b]thiophen-5-yl)methyl)phosphoryl)bis(oxy))bis(ethane-2,1-diyl)) bis(2-methoxyethanethioate)]			< 100	100 to 1000	
